Data: patent publication US6046186A, “Estrone sulfamate inhibitors of estrone sulfatase, and associated pharmaceutical compositions and methods of use” (SRI International, priority 1997, dated 2000)
Read-outs that look alike come from different tables or passages of the source.

Assays:
[1] = target: T1, Estrone Sulfatase (Homo sapiens, UniProt P08842); test: Effects of Inhibitors on Estrone Sulfatase Activity in MCF-7 Cells; type: cell-based
T1 construct: endogenous in cells; host or cells: MCF-7 human breast cancer cells (American Type Culture Collection)
T1 sequence (P08842 22-583): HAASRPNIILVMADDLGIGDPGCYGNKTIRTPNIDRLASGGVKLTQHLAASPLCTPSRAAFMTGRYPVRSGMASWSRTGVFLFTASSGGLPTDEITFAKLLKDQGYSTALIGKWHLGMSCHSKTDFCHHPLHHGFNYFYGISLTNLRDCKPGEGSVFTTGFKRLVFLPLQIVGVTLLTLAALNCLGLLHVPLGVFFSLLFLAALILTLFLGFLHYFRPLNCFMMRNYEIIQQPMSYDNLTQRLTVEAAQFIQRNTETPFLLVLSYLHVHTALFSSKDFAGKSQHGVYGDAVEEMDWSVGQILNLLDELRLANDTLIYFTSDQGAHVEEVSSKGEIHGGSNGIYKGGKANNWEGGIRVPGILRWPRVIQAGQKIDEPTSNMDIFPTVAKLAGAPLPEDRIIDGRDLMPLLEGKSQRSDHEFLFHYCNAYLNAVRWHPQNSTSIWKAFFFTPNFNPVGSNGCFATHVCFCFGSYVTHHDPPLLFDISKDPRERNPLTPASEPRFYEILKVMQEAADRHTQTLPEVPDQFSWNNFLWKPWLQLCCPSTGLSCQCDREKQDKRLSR
Description: A. Effects of Inhibitors on Estrone Sulfatase Activity in MCF-7 Cells
Reagents: MCF-7 human breast cancer cell line was supplied by the American Type Culture Collection, Rockville, MD. Eagle's minimum essential medium (MEM) and fetal calf serum (FCS) were purchased from Sigma Chemical Company, St. Louis, Mo. [4-^14 C]Estrone, [6,7-^3 H]estradiol and [6,7-^3 H](N)estrone sulfate were obtained from New England Nuclear Research Products, Boston, Mass.
Procedure: The method of Duncan et al., Cancer Res. 53:298-303 (1993) was employed. MCF-7 cells were seeded in 60 mm×15 mm culture dishes at 1×10^5 cells/dish and maintained in 4.0 ml of MEM containing 2 mM glutamine and 5% FCS. The cells were incubated at 37° C. in an atmosphere of 5% CO2 /95% air and 100% humidity, with the medium changed every third day. When the cells reached 80% confluency, the intact monolayers were washed once with Earl's balanced salt solution and incubated in 4.0 ml of serum and phenol re-free MEM containing either the substrate (^3 H-estrone sulfate, 7 pmol, 9×10^5 dpm) and inhibitor dissolved in ethanol, or ethanol alone. The fmal ethanol concentration was always below 1%. The incubation continued under the regular conditions for 24 h. At the end of 24 h, 2.0 ml of medium was transferred into separate tubes containing 7×10^3 dpm of ^14 C-estrone. The mixture was vortexed vigorously for 60 s with 5 ml of toluene. After phase separation, 2.0 ml of the organic phase was transferred into a counting vial for scintillation counting. The amount of estrone sulfate hydrolyzed was calculated on the basis of ^3 H counts obtained, with the added ^14 C-estrone counts used to correct for recovery through the extraction procedure.
The cells remaining in each culture dish were washed once with saline and then scraped with 1.0 ml of 0.5 N NaOH into 10×75 mm tubes. The cell pellets in each tube was incubated at 50° C. for 20 min to ensure that digestion was complete and all proteins had became soluble. An aliquot was then taken for protein determination by Lowry's method (Lowry et al., J. Biol. Chem. 193:265-275 (1951)).
The percentage of inhibition was determined by evaluating the quantity of estrone sulfate hydrolyzed with the inhibitor relative to that without the inhibitor.
As a general practice, all available inhibitors were first tested at 100 μM; the ones showing inhibitory effects at that concentration were tested again at various concentrations to obtain the IC50 values.

[2] = tested on: uterus; test: Uterotrophic assay (estrogenic activity from uterine weights); type: in vivo, Sprague Dawley rats; parameters: scale not given here; conditions: female rats, test compound alone once daily for 7 days, s.c. or oral gavage; uterine weight vs vehicle control
Description: B. Uterotrophic and antiuterotrophic assays
Sprague Dawley rates are obtained from Simmonsen Laboratories, Gilroy, Calif. Estradiol benzoate may be purchased from Sigma Chemical Co., St. Louis, Mo.
The procedure of Wakeling et al., Endocrinology 99:447453 (1983) is followed. Female Sprague Dawley rats weighing 40-50 grams are used for the experiment. In general, animals are quarantined for 3 days after arrival at the experimental site.
Rats are initially weighed and randomly divided into groups with 5 animals in each group. For the uterotrophic assay, animals are dosed once daily with various doses of test compounds in 0.1 or 1.0 ml of sterile saline via subcutaneous injection or oral gavage, respectively. For the antiuterotrophic assay, animals are dosed once daily with the same doses indicated above plus 0.5 μg/rat of estradiol benzoate alone.
The animals are treated for 7 days. On day 8, animals are weighed and then sacrificed. The uterus of each animal is removed immediately after death and weighed; fat materials are trimmed off prior to weighing.
A comparison of uterine weights from the groups receiving test compound alone with those of the vehicle control group gives the estrogenic activity. Antiestrogenic activity is obtained by comparing the uterine weights from the groups receiving test compound plus estradiol with those of the estradiol control group.

[3] = intact MCF-7 human breast cancer cells, 3H-estrone sulfate substrate, 24 h, 37° C., read-out: Estrone Sulfatase Inhibitory Activity IC50

SMILES | IC50 [1, 3] | Estrogenic Activity [2] | IC50 [1]
C#CC1=CC[C@H]2[C@@H]3CCc4cc(OS(N)(=O)=O)ccc4[C@H]3CC[C@]12C [Compound 5, 19-Norpregna-1,3,5(10),16-tetraen-20-yne-3-O-sulfamate] | 0.25 nM | 0.40 | 
CC(=O)C1=CC[C@H]2[C@@H]3CCc4cc(OS(N)(=O)=O)ccc4[C@H]3CC[C@]12C [Compound 7, 19-Norpregna-1,3,5(10),16-tetraen-20-one-3-O-sulfamate] | 0.021 nM | 0.66 | 
CC(=O)[C@H]1CC[C@H]2[C@@H]3CCc4cc(OS(N)(=O)=O)ccc4[C@H]3CC[C@]12C [Compound 10, 19-Norpregna-1,3,5(10)trien-20-one-3-O-sulfamate] | 2 nM | 0 | 
C/C=C1/CC[C@H]2[C@@H]3CCc4cc(OS(N)(=O)=O)ccc4[C@H]3CC[C@]12C [Compound 13, [17(20)Z]-19-Norpregna-1,3,5(10),17(20)-tetraene-3-O-sulfamate] | 0.08 nM | 0.05 | 
CC/C=C1/CC[C@H]2[C@@H]3CCc4cc(OS(N)(=O)=O)ccc4[C@H]3CC[C@]12C [Compound 15, [17(20)Z]-Propylideneestra-1,3,5(10)-triene-3-O-sulfamate] | 0.038 nM | 0.30 | 
CCC/C=C1/CC[C@H]2[C@@H]3CCc4cc(OS(N)(=O)=O)ccc4[C@H]3CC[C@]12C [Compound 17, [17(20)Z]-19,21-Dinorchola-1,3,5(10)17(20)-tetraene-3-O-sulfamate] | 0.011 nM | 0.55 | 
CC[C@H]1CC[C@H]2[C@@H]3CCc4cc(OS(N)(=O)=O)ccc4[C@H]3CC[C@]12C [Compound 19, 19-Norpregna-1,3,5(10)-triene-3-O-sulfamate] | 0.02 nM | 0.54 | 
CCC[C@H]1CC[C@H]2[C@@H]3CCc4cc(OS(N)(=O)=O)ccc4[C@H]3CC[C@]12C [Compound 21, 17β-Propylestra-1,3,5(10)-triene-3-O-sulfamate] | 0.034 nM | 0 | 
CCCC[C@H]1CC[C@H]2[C@@H]3CCc4cc(OS(N)(=O)=O)ccc4[C@H]3CC[C@]12C [Compound 23, 19,21-Dinorchola-1,3,5(10)-triene-3-O-sulfamate] | 0.096 nM | 0.02 | 
CC/C=C1\CC[C@H]2[C@@H]3CCc4cc(OS(N)(=O)=O)ccc4[C@H]3CC[C@]12C [Compound 28, [17(20)E]-Propylideneestra-1,3,5(10)-triene-3-O-sulfamate] | 0.027 nM | 0.20 | 
CCOC(=O)/C=C1/CC[C@H]2[C@@H]3CCc4cc(OS(N)(=O)=O)ccc4[C@H]3CC[C@]12C [Compound 32, Ethyl 3-Sulfamoyloxy-[17(20)Z]-19-norpregna-1,3,5(10),17(20)-tetraen-21-oate] | 2.7 nM | 0 | 
CCOC(=O)/C=C1\CC[C@H]2[C@@H]3CCc4cc(OS(N)(=O)=O)ccc4[C@H]3CC[C@]12C [Compound 34, Ethyl 3-Sulfamoyloxy-[17(20)E]-19-norpregna-1,3,5(10),17(20)-tetraen-21-oate] | 0.27 nM | 0 | 
C[C@]12CC[C@@H]3c4ccc(OS(N)(=O)=O)cc4CC[C@H]3[C@@H]1CCC2=C(C#N)C#N [Compound 36, 20-Cyano-19-norpregna-1,3,5(10),17(20)-tetraene-21-nitrile-3-O-sulfamate] | 0.09 nM | 0.44 | 
CN(C)CCOC/C=C1\CC[C@H]2[C@@H]3CCc4cc(OS(N)(=O)=O)ccc4[C@H]3CC[C@]12C [Compound 39, 21-(2'-N,N-Dimethylaminoethoxy)-[17(20)E]-19-norpregna-1,3,5(10),17(20)-tetraene-3-O-sulfamate] | 34 nM | 0 | 
CN(C)CCO[C@H]1CC[C@H]2[C@@H]3CCc4cc(OS(N)(=O)=O)ccc4[C@H]3CC[C@]12C [Compound 44, 17β-(2'-N,N-Dimethylaminoethoxy)estra-1,3,5(10)-triene-3-O-sulfamate] | 24 nM | 0 | 
CN(C)CCCO[C@H]1CC[C@H]2[C@@H]3CCc4cc(OS(N)(=O)=O)ccc4[C@H]3CC[C@]12C [Compound 47, 17β-(3'-N,N-Dimethylaminopropoxy)estra-1,3,5(10)-triene-3-O-sulfamate] | 23 nM | 0.27 | 
CC(C)(C)[Si](C)(C)O[C@@H]1CC[C@H]2[C@@H]3CCc4cc(OS(N)(=O)=O)ccc4[C@H]3CC[C@]12C [Compound 52, 17α-tert-Butyldimethylsilyloxyestra-1,3,5(10)-triene-3-O-sulfamate] |  | 0 | 0.31 nM
CN(C)CCO[C@@H]1CC[C@H]2[C@@H]3CCc4cc(OS(N)(=O)=O)ccc4[C@H]3CC[C@]12C [Compound 55, 17α-(2'-N,N-Dimethylaminoethoxy)estra-1,3,5(10)-triene-3-O-sulfamate] | 26 nM | 0 | 
CC(=O)O[C@H]1CC[C@H]2[C@@H]3CCc4cc(OS(N)(=O)=O)c(C#N)cc4[C@H]3CC[C@]12C [Compound 59, 2-Cyanoestra-1,3,5(10)-trien-17β-ol-3-O-sulfamate 17β-O-acetate] | 0.3 nM | 0 | 
COC(=O)c1cc2c(cc1OS(N)(=O)=O)CC[C@@H]1[C@@H]2CC[C@]2(C)C(=O)CC[C@@H]12 [Compound 65, 2-Methoxycarbonylestra-1,3,5(10)-trien-17-one-3-O-sulfamate] |  | 0 | 
COc1cc2c(cc1OS(N)(=O)=O)CC[C@@H]1[C@@H]2CC[C@]2(C)C(=O)CC[C@@H]12 [Compound 67, 2-Methoxyestra-1,3,5(10)-trien-17-one-3-O-sulfamate] |  | 0 | 0.016 nM
C/C=C1/CC[C@H]2[C@@H]3CCc4cc(OS(N)(=O)=O)c(OC)cc4[C@H]3CC[C@]12C [Compound 69, 2-Methoxy-[17(20)Z]-19-norpregna-1,3,5(10),17(20)-tetraene-3-O-sulfamate] | 2.5 nM | 0 | 
CC[C@H]1CC[C@H]2[C@@H]3CCc4cc(OS(N)(=O)=O)c(OC)cc4[C@H]3CC[C@]12C [Compound 71, 2-Methoxy-19-norpregna-1,3,5(10)-triene-3-O-sulfamate] | 1.5 nM | 0 | 
CN(C)Cc1cc2c(cc1OS(N)(=O)=O)CC[C@@H]1[C@@H]2CC[C@]2(C)C(=O)CC[C@@H]12 [Compound 73, 2-Dimethylaminomethylestra-1,3,5(10)-trien-17-one-3-O-sulfamate] | > 1000 nM | 0 | 
COCc1cc2c(cc1OS(N)(=O)=O)CC[C@@H]1[C@@H]2CC[C@]2(C)C(=O)CC[C@@H]12 [Compound 75, 2-Methoxymethylestra-1,3,5(10)-trien-17-one-3-O-sulfamate] | 2 nM | 0 | 
